Tests used:
[1] = system: Neisseria gonorrhoeae strain WHO Z; settings: strain phenotype; cited from earlier work
Neisseria gonorrhoeae = assay: Antibiotic resistance development test over 30 days; assay type: cell-based; settings: control; 30 days of treatment
Procedure: FIG. 2: Antibiotic resistance development assay of PBT2.
Resistance development was tested over a 30 day period with PBT2 and using Kanamycin as a control.

[2] = system: Neisseria gonorrhoeae ATCC49226; assay: MIC of PBT2 and comparators against CLSI reference strain; assay type: cell-based; settings: ATCC49226, comparator antimicrobials
Description: 13 multidrug resistant WHO strains of Neisseria gonorrhoeae were selected to cover antimicrobial resistance phenotypes to all the antibiotics currently used.

[3] = system: Neisseria gonorrhoeae ATCC49226; settings: cited from earlier work
[4] = system: Neisseria gonorrhoeae strain WHO Z; assay: Ex vivo Neisseria gonorrhoeae infection of human cervical (Pex) cells; assay type: cell-based
Description: FIG. 4: Chart indicating PBT2 can cure Neisseria gonorrhoeae infection of human cervical (Pex) cells. […] Ceftriaxone (CRO, positive control) is currently recommended for gonorrhoea treatment. Veh—0.1% DMSO vehicle control; UT—untreated; * p<0.0001 versus vehicle for CRO or PBT2 treatment.
To assess the ability of PBT2 to cure an established gonococcal infection in a human ex vivo system, primary human cervical epithelial (Pex) cells were challenged with Neisseria gonorrhoeae strain WHO Z for 90 min and then treated with 0.1% DMSO (vehicle control), PBT2 (0.016 mg/L to 4.695 mg/L), or ceftriaxone (0.5 mg/L, positive control) for 24 h. Viable gonococci were then enumerated. […] PBT2-induced Pex cell cytotoxicity was not observed during the assay.

[5] = system: Neisseria gonorrhoeae strain WHO Z; assay: MIC of Triton X-100 with/without PBT2; assay type: cell-based
Description: Without wishing to be bound by theory, the inventors hypothesise that this may due to the fact PBT2 is a derivative of the iron chelator clioquinol and PBT2 has the capacity to chelate a range of heavy metals including iron. Genes encoding metal homeostasis proteins (blue dots) are presented in the volcano plot (FIG. 3). Metal homeostasis was previously identified as a crucial feature of gonococcal biology, and therefore it is postulated this may be an “Achilles' heel” with respect to Neisseria gonorrhoeae ionophore sensitivity. […] MpeR is an iron-repressed, AraC-like protein that regulates the mtr efflux locus (involved in antimicrobial susceptibility) in Neisseria gonorrhoeae. Up-regulation of mpeR (e. g. by PBT2) down-regulates MtrF and, in turn, would increase Neisseria gonorrhoeae sensitivity to the antimicrobial detergent, Triton X-100 (22). […] Thus, without wishing to be bound to theory, the inventors hypothesise that PBT2 may influence bacterial iron homeostasis and trigger general defence mechanisms, such as Mtr-mediated antimicrobial efflux, but the Mtr-system may be unable to protect against PBT2.

[6] = system: Streptococcus uberis (S. uberis); settings: in the absence of an antibiotic; cited from earlier work
[7] = system: erythromycin-resistant group A Streptococcus (GAS); settings: in the absence of an antibiotic; cited from earlier work
[8] = system: methicillin-resistant Staphylococcus aureus (MRSA); settings: in the absence of an antibiotic; cited from earlier work
[9] = system: vancomycin-resistant Enterococcus (VRE); settings: in the absence of an antibiotic; cited from earlier work

For `O=C(O)c1cn(C2CC2)c2cc(N3CCNCC3)c(F)cc2c1=O` [Ciprofloxacin], the “resistance of WHO Z” value [1] is listed as “resistant”.

For `NC[C@H]1O[C@H](O[C@H]2[C@H](O)[C@@H](O[C@H]3O[C@H](CO)[C@@H](O)[C@H](N)[C@H]3O)[C@H](N)C[C@@H]2N)[C@H](O)[C@@H](O)[C@@H]1O` [Kanamycin, reference compound], the “development of resistance to kanamycin” value (Neisseria gonorrhoeae) was “development of resistance”.

For `CN(C)[C@@H]1C(O)=C(C(N)=O)C(=O)[C@@]2(O)C(O)=C3C(=O)c4c(O)cccc4[C@@](C)(O)[C@H]3C[C@@H]12` [Tetracycline, reference compound], the MIC ([2]; agar dilution) is listed as 0.25 µg/mL, the MIC ([2]; broth dilution) is listed as 0.25 µg/mL and the “CLSI agar dilution MIC QC range” value [3] is listed as 0.25 to 1 µg/mL. For the same compound, the “resistance of WHO Z” value [1] was “resistant”.

In the case of `CC[C@H]1OC(=O)[C@H](C)[C@@H](O[C@H]2C[C@@](C)(OC)[C@@H](O)[C@H](C)O2)[C@H](C)[C@@H](O[C@@H]2O[C@H](C)C[C@H](N(C)C)[C@H]2O)[C@](C)(O)C[C@@H](C)CN(C)[C@H](C)[C@@H](O)[C@]1(C)O` [azithromycin], the “resistance of WHO Z” value [1] is listed as “resistant”.

For `C=CC1=C(C(=O)O)N2C(=O)[C@@H](NC(=O)/C(=N\OCC(=O)O)c3csc(N)n3)[C@H]2SC1` [cefixime], the “resistance of WHO Z” value [1] is listed as “resistant”.

For `CO/N=C(\C(=O)N[C@@H]1C(=O)N2C(C(=O)O)=C(CSc3nc(=O)c(=O)[nH]n3C)CS[C@H]12)c1csc(N)n1` [ceftriaxone, reference compound], the “susceptibility of WHO Z” value ([4]; ceftriaxone positive control (0.5 mg/L)) is given as “susceptible”, the p versus vehicle ([4]; survival at 24 h, FIG. 4, CRO 0.5 mg/L) is given as < 0.0001 and the “resistance of WHO Z” value [1] is given as “resistant”.

In the case of `CC1(C)S[C@@H]2[C@H](NC(=O)Cc3ccccc3)C(=O)N2[C@H]1C(=O)O` [penicillin G], the “resistance of WHO Z” value [1] is given as “resistant”.

With Triton X-100 the “MIC of Triton X-100” value ([5]; in the presence of 0.156 mg/L (sub-MIC) PBT2) was 125 µg/mL and the “MIC of Triton X-100” value ([5]; without PBT2) was > 1000 µg/mL.

In the case of zinc [reference compound], the antibacterial activity [6] is listed as “neither PBT2 nor zinc alone displayed antibacterial activity which would be suitable to treat an infection”, the antibacterial activity [7] is listed as “neither PBT2 nor zinc alone displayed antibacterial activity which would be suitable to treat an infection” and the antibacterial activity [8] is listed as “neither PBT2 nor zinc alone displayed antibacterial activity which would be suitable to treat an infection”. For the same compound, the antibacterial activity [9] was “neither PBT2 nor zinc alone displayed antibacterial activity which would be suitable to treat an infection”.
